Data published in patent US8912200B2, “Alkynyl substituted pyrimidinyl-pyrroles active as kinases inhibitors” (Nerviano Medical Sciences S.R.L., priority 2011, dated 2014).

Legend:
[1] = tested on: JAK2 dependent human megakaryoblastic leukemia cell line SET-2; assay: Cell proliferation assay (CellTiter-Glo, 72 hours); assay type: cell-based; settings: Homo sapiens, SET-2 cells
Procedure, shortened: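 About 5×10^3 SET-2 cells per well, in RPMI-1640 with 10% FBS, were exposed to inhibitor dilutions for 72 hours at 37 °C, 5% CO2. Viability read by CellTiter-Glo luminescence. IC50 from sigmoidal fitting of 8-point dilution curves.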

JAK2 kinase domain = target: T1, JAK2 kinase domain (Homo sapiens, UniProt O60674); assay: Biochemical assay for inhibitors of JAK kinase activity (JAK2, 33P-γ-ATP/dowex resin); settings: JAK2 kinase domain 1 nM, 60 μM ATP
T1 construct: commercially available JAK2 kinase domain; purchased Invitrogen, Eugene, Oreg
Procedure, shortened: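 Human JAK2 (1 nM) phosphorylated peptide BioDBn*306 (64 μM) with 60 μM ATP plus 3 nM 33P-γ-ATP in HEPES pH 7.5/MgCl2/DTT buffer, 60 min at room temperature. Unreacted ATP captured by Dowex resin; supernatant β-counted. IC50 from sigmoidal fit of ten-point 1:3 dilution curves.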

Lyn full length = target: T2, Lyn full length (Homo sapiens, UniProt P07948); assay: Biochemical assay for inhibitors of Lyn (Src family) kinase activity; settings: Lyn full length 1 nM, 25 μM ATP
T2 construct: The assay has been performed using Lyn full length
Excerpt: Biochemical Assay for Inhibitors of Lck and Lyn (Src Family) Kinases Activity
Specific Lck and Lyn substrates are trans-phosphorylated by Lck and Lyn kinases in the presence of ATP traced with 33P-γ-ATP. At the end of the phosphorylation reaction, the unreacted ATP, cold and radioactive, is captured by an excess of dowex ion exchange resin that eventually settles by gravity to the bottom of the reaction plate. The supernatant is subsequently withdrawn and transferred into a counting plate that is then evaluated by β-counting.
Lyn Specific Assay Conditions
The assay has been performed using Lyn full length (accession number P07948 of UniProtKB/Swiss-Prot database).
Kinase buffer was composed of 50 mM HEPES pH 7.5 containing 3 mM MgCl2, 1 mM DTT, 3 μM Na3VO4, and 0.2 mg/mL BSA.
The Lyn kinase assay was run with a final enzyme concentration of 1 nM, in the presence of 25 μM ATP, 1.5 nM 33P-γ-ATP and 250 μM of substrate ABI 1 (Aminoacid sequence: EAIYAAPFAKKK—SEQ ID NO: 3). The peptidic substrate was purchased from American Peptide Company (Sunnyvale, Calif.).
For IC50 determination, test compounds are received as a 1 mM solution in 100% DMSO, distributed into 96 well plates: compounds are then plated into the first column of a microtiter plate (A1 to G1), 100 μL/well.
An automated station for serial dilutions (Biomek FX, Beckman) is used for producing 1:3 dilutions in 100% DMSO, from line A1 to A10, and for all the compounds in the column. Moreover, 4-5 copies of daughter plates are prepared by reformatting 5 μL of this first set of 100% DMSO dilution plates into 384 deep well-plates: one of these plates with the serial dilutions of test compounds will be thawed the day of the experiments, reconstituted at a 3× concentration with water and used in the IC50 determination assays. In a standard experiment, the highest concentration (3×) of all compounds is 30 μM, while the lowest one is 1.5 nM. Each 384 well-plate will contain at least one curve of the standard inhibitor staurosporine and reference wells (total enzyme activity vs. no enzymatic activity) for the Z′ and signal to background evaluation.
384-well plates, V bottom (test plates) are prepared with 5 μL of the compound dilution (3×) and then placed onto a PlateTrak 12 robotized station (Perkin Elmer; the robot has one 384-tip pipetting head for starting the assay plus one 96-tip head for dispensing the resin) together with one reservoir for the Enzyme mix (3×) and one for the ATP mix (3×). At the start of the run, the robot aspirates 5 μL of ATP mix, makes an air gap inside the tips (3 μl) and aspirates 5 μL of JAK2 mix. The following dispensation into the plates plus 3 cycles of mixing, done by the robot itself, starts the kinase reaction. At this point, the correct concentrations are restored for all the reagents. The robot incubates the plates for 60 minutes at room temperature, and then stops the reaction by pipetting 60 μL of dowex resin suspension into the reaction mix. In order to avoid tip clogging, wide bore tips are used to dispense the resin suspension. Three cycles of mixing are done immediately after the addition of the resin. Another mixing cycle is performed after all the plates are stopped, this time using normal tips: the plates are then allowed to rest for about one hour in order to allow resin sedimentation. At this point, 27 μL of the supernatant are transferred into 384-Optiplates (Perkin-Elmer), with 50 μL of Microscint 40 (Perkin-Elmer); after 5 min of orbital shaking the plates are read on a Perkin-Elmer Top Count radioactivity counter.
Data are analyzed by an internally customized version of the SW package “Assay Explorer” that provides sigmoidal fitting of the ten-dilutions curves for IC50 determination in the secondary assays/hit confirmation routines.

T2 sequence (P07948 whole entry): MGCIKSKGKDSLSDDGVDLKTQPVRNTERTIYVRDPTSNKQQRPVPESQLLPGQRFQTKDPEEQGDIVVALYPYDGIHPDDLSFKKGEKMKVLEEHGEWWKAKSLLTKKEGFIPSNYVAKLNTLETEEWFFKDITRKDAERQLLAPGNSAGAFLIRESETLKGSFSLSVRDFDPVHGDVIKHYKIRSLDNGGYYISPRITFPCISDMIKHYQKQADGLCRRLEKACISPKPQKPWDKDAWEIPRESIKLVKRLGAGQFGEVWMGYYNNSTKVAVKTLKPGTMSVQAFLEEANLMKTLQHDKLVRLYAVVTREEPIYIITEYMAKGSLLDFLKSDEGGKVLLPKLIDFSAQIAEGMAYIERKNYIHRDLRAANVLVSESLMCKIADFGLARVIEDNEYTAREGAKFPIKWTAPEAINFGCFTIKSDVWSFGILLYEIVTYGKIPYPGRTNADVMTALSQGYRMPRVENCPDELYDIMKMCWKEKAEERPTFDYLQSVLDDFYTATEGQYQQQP
T1 sequence (O60674 849-1124 limits assumed): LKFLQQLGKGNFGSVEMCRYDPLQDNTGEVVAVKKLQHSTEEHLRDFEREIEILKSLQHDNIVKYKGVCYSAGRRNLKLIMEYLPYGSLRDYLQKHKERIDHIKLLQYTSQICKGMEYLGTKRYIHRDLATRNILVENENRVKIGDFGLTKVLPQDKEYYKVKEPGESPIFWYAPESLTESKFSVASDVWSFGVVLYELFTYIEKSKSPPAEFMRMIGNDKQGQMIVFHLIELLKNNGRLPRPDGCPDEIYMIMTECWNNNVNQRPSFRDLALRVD

Compound | IC50 [1] | IC50 (JAK2 kinase domain) | IC50 (Lyn full length)
Cc1ccc(Cl)cc1-c1[nH]c(-c2ccnc(N)n2)c(C#Cc2ccccc2)c1C(N)=O [compound 69, 5-(2-Amino-pyrimidin-4-yl)-2-(5-chloro-2-methyl-phenyl)-4-phenylethynyl-1H-pyrrole-3-carboxamide] | 1450 nM | 8 nM | 20 nM
Cc1ccc(Cl)cc1-c1[nH]c(-c2ccnc(N)n2)c(C#Cc2cccc(N)c2)c1C(N)=O [compound 72, 4-[(3-Aminophenyl)ethynyl]-5-(2-aminopyrimidin-4-yl)-2-(5-chloro-2-methylphenyl)-1H-pyrrole-3-carboxamide] | 420 nM | 2 nM | 10 nM
Cc1ccc(Cl)cc1-c1[nH]c(-c2ccnc(N)n2)c(C#Cc2ccc(N)cc2)c1C(N)=O [compound 76, 4-[(4-Aminophenyl)ethynyl]-5-(2-amino-pyrimidin-4-yl)-2-(5-chloro-2-methyl-phenyl)-1H-pyrrole-3-carboxamide] | 500 nM | 3 nM | 8 nM
Cc1ccc(Cl)cc1-c1[nH]c(-c2ccnc(N)n2)c(C#Cc2cccc(CN3CCN(C)CC3)c2)c1C(N)=O [compound 81, 5-(2-Aminopyrimidin-4-yl)-2-(5-chloro-2-methylphenyl)-4-({3-[(4-methylpiperazin-1-yl)methyl]phenyl}ethynyl)-1H-pyrrole-3-carboxamide] | 540 nM | 6 nM | 3 nM
Cc1ccc(Cl)cc1-c1[nH]c(-c2ccnc(N)n2)c(C#Cc2cccc(NCCN)c2)c1C(N)=O [compound 82, 4-({3-[(2-Aminoethyl)amino]phenyl}ethynyl)-5-(2-aminopyrimidin-4-yl)-2-(5-chloro-2-methylphenyl)-1H-pyrrole-3-carboxamide] | 290 nM | 7 nM | 11 nM
Cc1ccc(Cl)cc1-c1[nH]c(-c2ccnc(N)n2)c(C#Cc2ccc(N3CCN(C)CC3)cc2)c1C(N)=O [compound 83, 5-(2-Aminopyrimidin-4-yl)-2-(5-chloro-2-methylphenyl)-4-{[4-(4-methylpiperazin-1-yl)phenyl]ethynyl}-1H-pyrrole-3-carboxamide] | 510 nM | 8 nM | 9 nM
Cc1ccc(Cl)cc1-c1[nH]c(-c2ccnc(N)n2)c(C#Cc2ccccc2NCCN(C)C)c1C(N)=O [compound 87, 5-(2-Aminopyrimidin-4-yl)-2-(5-chloro-2-methylphenyl)-4-[(2-{[2-(dimethylamino)ethyl]amino}phenyl)ethynyl]-1H-pyrrole-3-carboxamide] | 290 nM | 13 nM | 24 nM
Cc1ccc(Cl)cc1-c1[nH]c(-c2ccnc(N)n2)c(C#Cc2cccc(N3CCN(C)CC3)c2)c1C(N)=O [compound 90, 5-(2-Aminopyrimidin-4-yl)-2-(5-chloro-2-methylphenyl)-4-{[3-(4-methylpiperazin-1-yl)phenyl]ethynyl}-1H-pyrrole-3-carboxamide carboxamide] | 300 nM | 3 nM | 5 nM
Cc1ccc(Cl)cc1-c1[nH]c(-c2ccnc(N)n2)c(C#Cc2cccc(OC3CCN(C)CC3)c2)c1C(N)=O [compound 91, 5-(2-Aminopyrimidin-4-yl)-2-(5-chloro-2-methylphenyl)-4-({3-[(1-methylpiperidin-4-yl)oxy]phenyl}ethynyl)-1H-pyrrole-3-carboxamide] | 260 nM | 5 nM | 114 nM
Cc1ccc(Cl)cc1-c1[nH]c(-c2ccnc(N)n2)c(C#Cc2ccccc2NC2CCN(C)CC2)c1C(N)=O [compound 94, 5-(2-Aminopyrimidin-4-yl)-2-(5-chloro-2-methylphenyl)-4-({2-[(1-methylpiperidin-4-yl)amino]phenyl}ethynyl)-1H-pyrrole-3-carboxamide] | 290 nM | 32 nM | 661 nM
Cc1ccc(Cl)cc1-c1[nH]c(-c2ccnc(N)n2)c(C#Cc2ccc(N3CCC(N4CCN(C)CC4)CC3)cc2)c1C(N)=O [compound 95, 5-(2-Aminopyrimidin-4-yl)-2-(5-chloro-2-methylphenyl)-4-({4-[4-(4-methylpiperazin-1-yl)piperidin-1-yl]phenyl}ethynyl)-1H-pyrrole-3-carboxamide] | 400 nM | 8 nM | 281 nM
Cc1ccc(Cl)cc1-c1[nH]c(-c2ccnc(N)n2)c(C#Cc2ccc(N3CCC(N4CCCCC4)CC3)cc2)c1C(N)=O [compound 97, 5-(2-Aminopyrimidin-4-yl)-4-{[4-(1,4′-bipiperidin-1′-yl)phenyl]ethynyl}-2-(5-chloro-2-methylphenyl)-1H-pyrrole-3-carboxamide] | 740 nM | 12 nM | 293 nM

Further lines, results first:

IC50 [1] | IC50 (JAK2 kinase domain) | IC50 (Lyn full length) | Compound
190 nM | 1 nM | 1 nM | Cc1ccc(Cl)cc1-c1[nH]c(-c2nc(N)ncc2C#Cc2ccc(CN3CCCCC3)cc2)cc1C(N)=O [compound 67, 5-(2-Amino-5-{[4-(piperidin-1-ylmethyl)phenyl]ethynyl}pyrimidin-4-yl)-2-(5-chloro-2-methylphenyl)-1H-pyrrole-3-carboxamide]
210 nM | 1 nM | 1 nM | COc1ccc(N2CCN(C)CC2)cc1C#Cc1c(-c2ccnc(N)n2)[nH]c(-c2cc(Cl)ccc2C)c1C(N)=O [compound 86, 5-(2-Aminopyrimidin-4-yl)-2-(5-chloro-2-methylphenyl)-4-{[2-methoxy-5-(4-methylpiperazin-1-yl)phenyl]ethynyl}-1H-pyrrole-3-carboxamide]
260 nM | 6 nM | 4 nM | COc1cc(N2CCN(C)CC2)ccc1C#Cc1c(-c2ccnc(N)n2)[nH]c(-c2cc(Cl)ccc2C)c1C(N)=O [compound 89, 5-(2-Aminopyrimidin-4-yl)-2-(5-chloro-2-methylphenyl)-4-{[2-methoxy-4-(4-methylpiperazin-1-yl)phenyl]ethynyl}-1H-pyrrole-3-carboxamide]
220 nM | 5 nM | 39 nM | Cc1ccc(Cl)cc1-c1[nH]c(-c2ccnc(N)n2)c(C#Cc2ccc(OC3CCN(C)CC3)cc2)c1C(N)=O [compound 92, 5-(2-Aminopyrimidin-4-yl)-2-(5-chloro-2-methylphenyl)-4-({4-[(1-methylpiperidin-4-yl)oxy]phenyl}ethynyl)-1H-pyrrole-3-carboxamide]
230 nM | 5 nM | 93 nM | Cc1ccc(Cl)cc1-c1[nH]c(-c2ccnc(N)n2)c(C#Cc2cc(N3CCN(C)CC3)ccc2F)c1C(N)=O [compound 93, 5-(2-Aminopyrimidin-4-yl)-2-(5-chloro-2-methylphenyl)-4-{[2-fluoro-5-(4-methylpiperazin-1-yl)phenyl]ethynyl}-1H-pyrrole-3-carboxamide]
210 nM | 4 nM | 93 nM | Cc1ccc(Cl)cc1-c1[nH]c(-c2ccnc(N)n2)c(C#Cc2ccc(N3CCC(N(C)C)CC3)cc2)c1C(N)=O [compound 96, 5-(2-Aminopyrimidin-4-yl)-2-(5-chloro-2-methylphenyl)-4-({4-[4-(dimethylamino)piperidin-1-yl]phenyl}ethynyl)-1H-pyrrole-3-carboxamide]
